{"source": "patent US12398117B2", "about": "“Heteroarylamidopyridinol derivative and pharmaceutical composition comprising same as active ingredient for prevention or treatment of autoimmune disease” (INNOVO THERAPEUTICS INC., priority 2019, dated 2025)", "key": {"[1]": {"test_system": "DSS-induced chronic enteritis mouse model", "test": "Oral efficacy in DSS-induced chronic enteritis mouse model", "format": "in vivo, C57BL/6 mice", "settings": "for Morphological observation of colon (length, macroscopic symptoms, adhesions, congestion): DSS mouse, sulfasalazine 300 mg/kg, tofacitinib 30 mg/kg, FIG. 2C; for Body weight recovery rate (%) / Intestinal weight recovery rate (%): chronic enteritis (DSS-water-DSS, total 35 days), mouse", "procedure": "(§1) C57BL/6 mice aged 7-8 weeks were purchased from OrientBio (Korea), stabilized with general solid feed for 7 days, and then used in this experiment. Feed and water were freely supplied during the experiment period, and the temperature of the breeding room was maintained at 25±1° C. and the relative humidity at 50±10%. Lighting management was controlled in a 12-hour light-dark cycle by an automatic lighting controller.\n(§2) Enteritis was induced in mice by allowing them to freely ingest drinking water containing 2% DSS salt (M.W. 36,000˜50,000, MP Biomedicals, LLC, OH, USA). For the chronic enteritis model, DSS was administered using a schedule of DSS administration for the first 7 days, administration of normal drinking water for 14 days, repeated administration of DSS for 7 days from the 21st day, and administration of normal drinking water for 7 days. The drug was administered once a day, 6 days a week from the first day of DSS treatment (FIG. 2A). […] In order to measure the dose-dependent therapeutic effect of the drug in the acute enteritis model, DSS was administered for 5 days to induce enteritis, and then the drug was administered for 14 days to measure the degree of recovery and treatment of enteritis (FIG. 3A). The drug was administered orally once daily for […] at a fixed time.\n(§3) Changes in body weight of each mouse were observed during the DSS and drug administration using a digital mass meter.\n(§4) The colon of the mouse was extracted, and the length and weight from the anus to the cecum were measured.\n(§5) Tissue staining was performed in the same manner as in the case of hematoxylin/eosin staining of the rat colon tissue, and scoring indexes of mucosal damage and recovery were applied in the same way."}, "[2]": {"test_system": "DSS-induced acute enteritis mouse model", "test": "Oral efficacy in DSS-induced acute enteritis mouse model", "format": "in vivo, C57BL/6 mice", "settings": "acute enteritis (DSS), mouse", "procedure": "as §1, §2, §3, §4\nThe degree of neutrophil infiltration in the tissue was measured by the amount of MPO, a neutrophil marker enzyme. The colon tissue with a size of 1 cm was washed with cold PBS and weighed, to which a lysis buffer (pH7.4, 200 mM NaCl, 5 mM EDTA, 10 mM tris, 10% glycerin, 1 mM PMSF, 1 μg/mL leupeptin and 28 μg/mL aprotinin) was added (500 μL of per 10 mg of tissue weight), and then homogenized using Bead Blaster® D2400 homogenizer (Benchmark Scientific, NJ, USA). […] (HK210, Hycult Biotechnology, Netherlands). The supernatant was added to a 96 well plate (100 μL/well) coated with an anti-mouse MPO antibody, and incubated for 1 hour at room temperature, followed by washing 3 times with a washing buffer. A reconstituted tracer was added to the plate (100 μL/well), which was reacted at room temperature for 1 hour, washed 3 times, and then 100 μL of streptavidin-peroxidase conjugate was added to each well of the plate. The plate was reacted at room temperature for 1 hour, washed, and 100 μl of TMB substrate solution was added to each well of the plate, followed by reaction for 30 minutes. The reaction was terminated by adding 100 μL of a stop solution to each well of the plate, and absorbance was measured at 450 nm. MPO activity means the amount of 1 μM […] at 25° C. for 1 minute. This was calculated as the amount of MPO contained in 1 mL of the colon tissue homogenate.\nas §5"}, "[3]": {"test_system": "TNBS-induced inflammatory bowel disease rat model", "test": "Oral efficacy in TNBS-induced inflammatory bowel disease rat model", "format": "in vivo, Sprague Dawley rats", "procedure": "as §1, with “Sprague Dawley rats aged” for “C57BL/6 mice aged”, “for 3” for “for 7”\nAfter anesthetizing rats that had been fasted for 24 hours with diethyl ether, 0.8 mL of 5% TNBS diluted with 50v/v % ethanol was slowly injected into the lumen of the colon using a 1 mL syringe connected to a polyethylene catheter, and then, the rats were left standing for 60 seconds in an inverted position in order to prevent 5% TNBS from leaking into the anus. For the control group, only vehicle [50v/v % ethanol] was injected in the same manner as in the other groups (Thapa et al., 2008).\nIn order to investigate the effect of the drug, the drug was administered at a constant time every day for 5 days from the day after the TNBS treatment.\nChanges in body weight of each rat were observed from the fasting stage to the TNBS administration and drug administration process using a digital mass meter.\nThe colon of the rat was extracted, and the tissue 5-6 cm away from the anus was cut into a length of 1 cm, and the weight of the tissue was measured.\nThe weighed rat tissues were fixed with 4% paraformaldehyde solution, and then transferred to 30% sucrose solution. When the tissues subside, they were taken out and cut into […] thick using a cryomicrotome (Microm HM 450, Thermo Fisher Scientific, Germany) and stored in a cryopreservation solution. After washing the tissue section with KPBS, the tissue section was attached to a slide glass, dried, and then stained with hematoxylin & Eosin and observed under a microscope."}, "[4]": {"test_system": "adhesion of intestinal epithelial cells (HT-29) and monocytic cells (U937) induced by IL-6", "test": "Inhibition of IL-6-induced adhesion of monocytes and intestinal epithelial cells", "format": "cell-based, human", "settings": "Homo sapiens, 3 h; test drug 1 μM; IL-6 10 ng/mL; HT-29/U937; read-out: inhibitory activity (%)", "procedure": "The inhibitory activity test for intestinal epithelial cell-monocyte adhesion by IL-6 was performed using the same method as in the case of TNF-α. HT-29 cells were cultured in a 24-well plate at the density of 2×10^5 cells/cm^2, and the test drug was pretreated in a medium containing 1% FBS and 1% PS for 1 hour. Thereafter, 10 μg/mL of BCECF-AM was treated thereto and reacted at 37° C. for 30 minutes. U937 cells loaded with BCECF and IL-6 (10 ng/mL) were reacted with HT-29 cells previously treated with the test drug at 37° C. for 3 hours. Upon completion of the reaction, the medium was removed, and the culture flask was washed twice with PBS to remove non-adherent U937 cells. In the next step, the cells were lysed by treating with 0.1% Triton X-100 (0.1 M Tris) and reacted at room temperature for 30 minutes. Then, fluorescence was measured and quantified using a fluostar optima microplate reader (BMG Labtechnologies, Germany)."}, "[5]": {"test_system": "collagen-induced rheumatoid arthritis animal model", "test": "Oral efficacy in collagen-induced rheumatoid arthritis (CIA) mouse model", "format": "in vivo, DBA/1J mice", "settings": "oral, up to 35 days, FIG. 5A", "procedure": "12-week-old normal male mice and arthritis-induced DBA/1J mice were purchased from Central Lab. Animal Inc [To induce arthritis, DBA/1J mice were sensitized by injecting a mixed solution of Complete Freund's Adjuvant (CFA; DIFCO, Detroit, MI) and Bovine Type II collagen (1:1, v/v) intradermally at the pinna base at 8 weeks of age, and then, secondary sensitization was performed by intradermal injection at the tail head at 11 weeks of age]. The purchased arthritis mice were acclimatized to the laboratory environment for a week, and then oral administration of the drug was started.\nVisual observation of arthritic lesions was performed using the following scores based on a reference (Barnett et al., 1998).\nTherefore, the highest score for arthritic lesions was 16 per mouse.\nThe hind paw thickness, which is one of the pathological indices of rheumatoid arthritis, was measured using a caliper.\nThe right hind leg of each mouse was extracted, and all skin and muscles were removed, leaving only the bones and joints. The hind leg was fixed in 4% paraformaldehyde solution for 2 days, then immersed in 10% formic acid for 5 days to decalcify, and then immersed in 30% sucrose solution. When the tissue subsided, the articular tissue was cut into […] thick using a cryomicrotome (Microm HM 450, Thermo Fisher Scientific, Germany) and stored in a cryopreservation solution. Staining was performed using the stored tissue sections. After attaching the tissue sections to the slide glass, they were hydrated with 100%, 95%, 70%, and 50% ethanol solutions, and some were stained with safranin and others were stained with hematoxylin/eosin. For safranin staining, the tissue sections were first stained with 0.1% fast green solution, washed with 1% acetic acid solution, and then stained with 1% safranin solution. Thereafter, the tissue sections were dehydrated by immersing in ethanol solutions in the reverse order of hydration, and then preserved in xylene solution and mounting solution, and photographed under a microscope. Hematoxylin/eosin staining was performed in the same manner as in the colon tissue staining. The tissue sections were dehydrated, preserved in xylene solution and mounting solution, and observed under a microscope.\nThe degree of microscopic tissue damage of the stained articular tissue was measured using the following scores.\nAfter the spleen and draining lymph nodes of the mice were extracted, the number of immune cells was counted. To confirm the distribution of Th1 and Th17 cells, the immune cells obtained from each organ were stimulated using PMA/Ionomycin and Golgi stop.\nAfter staining using an anti-IFN-γ antibody that can identify Th1 cells, an anti-IL-17 antibody that can identify Th17 cells, and an anti-CD8 antibody that can identify cytotoxic T cells, the proportion of inflammatory cells among the total immune cells was confirmed using flow cytometry."}, "[6]": {"settings": "300 mg/kg, dose-dependence test (Table 7)"}, "[7]": {"settings": "30 mg/kg, listed as tofacitinib"}}, "data": [{"smiles": "O=C(O)c1cc(/N=N/c2ccc(S(=O)(=O)Nc3ccccn3)cc2)ccc1O", "note": "[Sulfasalazine, reference compound]", "values": [{"measurement": "Morphological observation of colon (length, macroscopic symptoms, adhesions, congestion)", "setting": "[1]", "result": "significantly suppressed"}, {"measurement": "Body weight recovery rate (%)", "setting": "[1]; 300 mg/kg", "result": 22.8, "unit": "%"}, {"measurement": "Intestinal weight recovery rate (%)", "setting": "[1]; 300 mg/kg", "result": 66.9, "unit": "%"}, {"measurement": "Intestinal weight recovery rate (%)", "setting": "[1]; 300 mg/kg, listed as sulfasalazine", "result": 67.3, "unit": "%"}, {"measurement": "Body weight recovery rate (%)", "setting": "[2]; 300 mg/kg", "result": 65.9, "unit": "%"}, {"measurement": "Intestinal weight recovery rate (%)", "setting": "[2]; 300 mg/kg", "result": 66.2, "unit": "%"}, {"measurement": "Body weight recovery rate (%)", "setting": "[3]; [6]", "result": 86.6, "unit": "%"}, {"measurement": "Intestinal weight recovery rate (%)", "setting": "[3]; [6]", "result": 69.6, "unit": "%"}, {"measurement": "Morphological observation of colon (visual symptoms, adhesions, congestion)", "setting": "[3]; after 5 days of drug administration, sulfasalazine 300 mg/kg, X-09 0.3-10 mg/kg", "result": "significantly suppressed"}, {"measurement": "Intestinal weight recovery rate (%)", "setting": "[3]; oral 300 mg/kg, 5 days, fixed-dose test (Table 6)", "result": 69.6, "unit": "%"}, {"measurement": "Body weight recovery rate (%)", "setting": "[3]; oral 300 mg/kg, 5 days, fixed-dose test (Table 6), 300 mg/kg", "result": 86.6, "unit": "%"}, {"measurement": "Body weight recovery rate (%)", "setting": "[3]; oral 300 mg/kg, 5 days, fixed-dose test (Table 6), listed as sulfasalazine, 300 mg/kg", "result": 50.5, "unit": "%"}]}, {"smiles": "C[C@@H]1CCN(C(=O)CC#N)C[C@@H]1N(C)c1ncnc2[nH]ccc12", "note": "[Tofacitinib, reference compound]", "values": [{"measurement": "Morphological observation of colon (length, macroscopic symptoms, adhesions, congestion)", "setting": "[1]", "result": "significantly suppressed"}, {"measurement": "Body weight recovery rate (%)", "setting": "[1]; 30 mg/kg", "result": 29.5, "unit": "%"}, {"measurement": "Intestinal weight recovery rate (%)", "setting": "[1]; 30 mg/kg", "result": 68.2, "unit": "%"}, {"measurement": "Body weight recovery rate (%)", "setting": "[1]; [7]", "result": 29.4, "unit": "%"}, {"measurement": "Intestinal weight recovery rate (%)", "setting": "[1]; [7]", "result": 68.8, "unit": "%"}, {"measurement": "inhibition at 1 µM", "setting": "[4]", "result": 49.1, "unit": "%"}, {"measurement": "Body weight recovery rate (%)", "setting": "[2]; 30 mg/kg", "result": 80.8, "unit": "%"}, {"measurement": "Intestinal weight recovery rate (%)", "setting": "[2]; 30 mg/kg", "result": 80.9, "unit": "%"}, {"measurement": "Body weight recovery rate (%)", "setting": "[2]; [7]", "result": 80.9, "unit": "%"}, {"measurement": "degree of arthritis (visual observation score)", "setting": "[5]", "result": "significantly improved dose dependently"}]}]}
